# Assay results taken from patent US20250304620A1, “ANTIMICROBIAL PEPTIDE AND APPLICATION THEREOF” (priority 2023, published 2025).
# Marks after values point to notes of the source that are not given here. Non-standard residues stand in square brackets, D forms with d. Residues, ends and D or L forms follow the SMILES beside them. dPhe(4-CF3) = N[C@H](Cc1ccc(C(F)(F)F)cc1)C(=O)O; dPhe(4-Br) = N[C@H](Cc1ccc(Br)cc1)C(=O)O; dPhe(4-Me) = Cc1ccc(C[C@@H](N)C(=O)O)cc1
# Legend:
# [1] = test system: carbapenem-resistant Klebsiella pneumoniae (CRKP); assay type: cell-based; conditions: carbapenem-resistant (CRKP)
# Outline: (§1)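 Antimicrobial peptide susceptibility is measured against clinically isolated resistant bacteria using the CLSI microdilution method.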
# [2] = test system: carbapenem-resistant Pseudomonas aeruginosa (CRPA); assay type: cell-based; conditions: carbapenem-resistant (CRPA)
# Outline: as §1
# [3] = test system: vancomycin-resistant Enterococcus (VRE); assay type: cell-based
# Outline: as §1
# [4] = test system: carbapenem-resistant Escherichia coli (CREC); assay type: cell-based; conditions: carbapenem-resistant (CREC)
# Outline: as §1
# [5] = test system: Methicillin-resistant Staphylococcus aureus (MRSA); assay type: cell-based; conditions: Methicillin-resistant
# Outline: as §1
# [6] = test system: Escherichia coli ATCC 25922; assay: Oral formulations on mice with systemic bacterial infection; assay type: in vivo, ICR mice; conditions: 1 mg/kg gavage, three times a day for 7 days, n = 10; for Average survival times (Days): observed for 14 d
# Outline: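 ICR mice of both sexes, 10 per group, infected i.p. with 0.2 mL E. coli ATCC 25922 at 1×10^7 CFU/mL. Compounds gavaged by body weight immediately after infection, three times daily for 7 days; deaths and survival time recorded over 14 d observation.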
# [7] = test system: Staphylococcus aureus (NRS 384); conditions: NRS 384, 3 h
# Method: Trypsin (250 U/mg, pH=8.0) and AMPs (LV-1 to LV-30) were mixed in a ratio of 1:10 (w/w) and added to a reaction buffer (0.2 M sodium phosphate, 1 mM CaCl2), pH 7.5), and then incubated at 37° C. for 3 h.
# [8] = test system: Corynebacterium ATCC 7715; assay type: cell-based
# Outline: (§2)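 MICs were determined by serial twofold dilution in microdilution format, following CLSI antimicrobial susceptibility testing standards. Each determination was repeated 5 times in parallel.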
# [9] = test system: Candida albicans ATCC MYA-2876; assay type: cell-based
# Outline: as §2
# [10] = test system: Klebsiella pneumoniae ATCC 700603; assay type: cell-based
# Outline: as §2
# [11] = test system: Serratia marcescens ATCC 29021; assay type: cell-based
# Outline: as §2
# Enterococcus ATCC 29212 = assay type: cell-based
# Outline: as §2
# [12] = test system: Escherichia coli ATCC 25922; assay type: cell-based
# Outline: as §2
# Candida krusei ATCC 6258 = assay type: cell-based
# Outline: as §2
# [13] = test system: Trichophyton ATCC MYA-4438; assay type: cell-based
# Outline: as §2
# [14] = test system: Pseudomonas aeruginosa ATCC 27853; assay type: cell-based
# Outline: as §2
# [15] = test system: Candida tropicalis ATCC 750; assay type: cell-based
# Outline: as §2
# [16] = test system: Pseudomonas aeruginosa ATCC 27853; assay: Injectable formulations on mice infected with peritonitis; assay type: in vivo, ICR mice; conditions: 1 mg/kg via tail vein, twice a day for 3 days, n = 10; for Average survival times (Days): observed for 14 d
# Outline: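 ICR mice of both sexes (10 per group) infected intraperitoneally with 0.2 mL P. aeruginosa ATCC 27853 at 1×10^9 CFU/mL. Injectable formulations dosed by body weight via tail vein twice daily for 3 days; deaths and survival time recorded over 14 d.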
# [17] = test system: Shigella flexneri ATCC 12022; assay: MIC against clinically common bacterial strain; assay type: cell-based
# Outline: as §2
SMILES,MIC CRKP [1],MIC CRPA [2],MIC VRE [3],MIC CREC [4],MIC MRSA [5],Number of mice that died on each day after infection: day 4 [6],Number of mice that died on each day after infection: day 5 [6],Number of mice that died on each day after infection: day 6 [6],Number of mice that died on each day after infection: day 7 [6],Number of mice that died on each day after infection: day 8 [6],Average survival times (Days) [6],Trypsin MIC [7],MIC Corynebacterium ATCC 7715 [8],MIC Candida albicans ATCC MYA-2876 [9],MIC Klebsiella pneumoniae ATCC 700603 [10],MIC Serratia marcescens ATCC 29021 [11],MIC Enterococcus ATCC 29212 (Enterococcus ATCC 29212),MIC Escherichia coli ATCC 25922 [12],MIC Candida krusei ATCC 6258 (Candida krusei ATCC 6258),MIC Trichophyton ATCC MYA-4438 [13],also measured
CC(=O)N[C@H](CCCNC(=N)N)C(=O)N[C@H](CCCCN)C(=O)N[C@H](CC(C)C)C(=O)N[C@H](CC(C)C)C(=O)N[C@H](Cc1ccc(C(F)(F)F)cc1)C(=O)N[C@H](CCCCN)C(=O)N[C@H](CC(C)C)C(=O)N[C@H](CCCCN)C(=O)N[C@H](Cc1ccc(C(F)(F)F)cc1)C(=O)N[C@H](CCCCN)C(=O)N[C@H](CCCNC(=N)N)C(N)=O [LV-9] (Ac-[dR][dK][dL][dL][dPhe(4-CF3)][dK][dL][dK][dPhe(4-CF3)][dK][dR]-NH2),8 µg/mL,4 µg/mL,4 µg/mL,2 µg/mL,2 µg/mL,1 Mouse,1 Mouse,1 Mouse,2 Mouse,0 Mouse,9.9** Days,1 µg/mL,2 µg/mL,8 µg/mL,2 µg/mL,4 µg/mL,4 µg/mL,2 µg/mL,16 µg/mL,16 µg/mL,MIC Pseudomonas aeruginosa ATCC 27853 [14]: 2 µg/mL; MIC Candida tropicalis ATCC 750 [15]: 16 µg/mL; Number of mice that died on each day after infection: day 1 [16]: 1 Mouse; Number of mice that died on each day after infection: day 2 [16]: 2 Mouse; Number of mice that died on each day after infection: day 3 [16]: 0 Mouse; Number of mice that died on each day after infection: day 4 [16]: 1 Mouse; Number of mice that died on each day after infection: day 5 [16]: 0 Mouse; Average survival times (Days) [16]: 9.3*** Days; MIC Shigella flexneri ATCC 12022 [17]: 2 µg/mL
CC(=O)N[C@H](CCCCN)C(=O)N[C@H](CCCCN)C(=O)N[C@H](CC(C)C)C(=O)N[C@H](CC(C)C)C(=O)N[C@H](Cc1ccc(Br)cc1)C(=O)N[C@H](CCCNC(=N)N)C(=O)N[C@H](CC(C)C)C(=O)N[C@H](CCCCN)C(=O)N[C@H](Cc1ccc(Br)cc1)C(=O)N[C@H](CCCNC(=N)N)C(=O)N[C@H](CCCCN)C(N)=O [LV-10] (Ac-[dK][dK][dL][dL][dPhe(4-Br)][dR][dL][dK][dPhe(4-Br)][dR][dK]-NH2),2 µg/mL,2 µg/mL,8 µg/mL,4 µg/mL,4 µg/mL,0 Mouse,2 Mouse,2 Mouse,0 Mouse,1 Mouse,10.0*** Days,1 µg/mL,8 µg/mL,8 µg/mL,2 µg/mL,4 µg/mL,2 µg/mL,1 µg/mL,8 µg/mL,8 µg/mL,MIC Pseudomonas aeruginosa ATCC 27853 [14]: 2 µg/mL; MIC Candida tropicalis ATCC 750 [15]: 4 µg/mL; Number of mice that died on each day after infection: day 1 [16]: 0 Mouse; Number of mice that died on each day after infection: day 2 [16]: 1 Mouse; Number of mice that died on each day after infection: day 3 [16]: 1 Mouse; Number of mice that died on each day after infection: day 4 [16]: 2 Mouse; Number of mice that died on each day after infection: day 5 [16]: 0 Mouse; Average survival times (Days) [16]: 9.7*** Days; MIC Shigella flexneri ATCC 12022 [17]: 2 µg/mL
CC(=O)N[C@H](CCCNC(=N)N)C(=O)N[C@H](CCCCN)C(=O)N[C@H](CC(C)C)C(=O)N[C@H](CC(C)C)C(=O)N[C@H](Cc1ccc(C)cc1)C(=O)N[C@H](CCCCN)C(=O)N[C@H](CC(C)C)C(=O)N[C@H](CCCCN)C(=O)N[C@H](Cc1ccc(C)cc1)C(=O)N[C@H](CCCCN)C(=O)N[C@H](CCCNC(=N)N)C(N)=O [LV-11] (Ac-[dR][dK][dL][dL][dPhe(4-Me)][dK][dL][dK][dPhe(4-Me)][dK][dR]-NH2),8 µg/mL,4 µg/mL,4 µg/mL,2 µg/mL,2 µg/mL,1 Mouse,1 Mouse,1 Mouse,1 Mouse,2 Mouse,9.4** Days,1 µg/mL,8 µg/mL,8 µg/mL,4 µg/mL,8 µg/mL,2 µg/mL,2 µg/mL,16 µg/mL,8 µg/mL,MIC Pseudomonas aeruginosa ATCC 27853 [14]: 2 µg/mL; MIC Candida tropicalis ATCC 750 [15]: 8 µg/mL; Number of mice that died on each day after infection: day 1 [16]: 0 Mouse; Number of mice that died on each day after infection: day 2 [16]: 1 Mouse; Number of mice that died on each day after infection: day 3 [16]: 1 Mouse; Number of mice that died on each day after infection: day 4 [16]: 0 Mouse; Number of mice that died on each day after infection: day 5 [16]: 2 Mouse; Average survival times (Days) [16]: 9.9**** Days; MIC Shigella flexneri ATCC 12022 [17]: 4 µg/mL
